This series deals with PyMT-A cells. Nature of the series: PyMT-A orthotopic breast cancer model, intratumoral ASO, tumor volume. It is filed as in vivo, mouse. Particulars: mean, n=10. From the text: Based on the intratumoral experimental data of various mouse breast cancer models and melanoma models (administration started 7 days later, once every 3 days), this example studies the effect comparison between the ASO prodrug (ASO24, whose sequence is shown in SEQ ID No. 2) and PD-1/PD-L1, as well as the effect of their combination.
1×10^5 E0771 cells were orthotopically injected into the fat pad of wild-type mice. Starting from day 7, PD-1 antibody (BioXCell #BE0033, clone J43, the same below) monotherapy, ASO monotherapy, or combined PD-1 antibody and ASO therapy was initiated. For anti-PD-1 antibody monotherapy, intraperitoneal injection was performed once a week at a dose of 3 mg/kg starting 7 days after tumor transplantation, and the control group was injected with DPBS. For MALT1 ASO monotherapy, in vivo-jetPEI®, in vivo DNA transfection kit was used according to the instructions. Intratumoral injection was performed twice a week at a dose of 5 nmol starting 7 days after tumor transplantation, and the control group was injected with solvent or nontarget ASO. Combined therapy will receive the two specified monotherapies. Tumor measurement was started after administration, once every three days. n=12. Data are expressed as mean. Statistical analysis was performed using Two way ANOVA. ** represents p <0.01.
1×10^5 PyMT-A cells were orthotopically injected into the fat pad of wild-type mice. Starting from day 7, PD-1 antibody monotherapy, ASO monotherapy, or combined PD-1 antibody and ASO therapy was initiated. n=10. Data are expressed as mean. Statistical analysis was performed using Two way ANOVA. n.s. represents no significant difference. ** represents p <0.01.

For “GAAGTTCATGAGCCTTGGCCC (antisense GAAGUUCAUGAGCCUUGGCCC; called an ASO prodrug, chemistry not given here) [ASO24]”, the Tumor volume is, setting by setting: (Day 0, PyMT-A orthotopic fat pad, wild-type mice, treatment from day 7, ASO intratumoral) 0 mm^3; (Day 7 (start of treatment), PyMT-A orthotopic, ASO intratumoral) 13 mm^3; (Day 10, PyMT-A orthotopic, treatment from day 7, ASO intratumoral) 41 mm^3; (Day 13, PyMT-A orthotopic, treatment from day 7, ASO intratumoral) 142 mm^3; (Day 16, PyMT-A orthotopic, treatment from day 7, ASO intratumoral) 245 mm^3; (Day 19, PyMT-A orthotopic, treatment from day 7, ASO intratumoral) 578 mm^3.

For the origin of these results see patent publication US20260258425A1, “MALT1 TUMOR INHIBITOR, PHARMACEUTICAL COMPOSITION CONTAINING THE SAME, AND APPLICATIONS THEREOF” (XZYP (BEIJING) BIOTECH CO., LTD, priority 2023, published 2026).
